Patent US4585859A, “Analogues of morpholinyl daunorubicin and morpholinyl doxorubicin” (priority 1984, dated 1986)
pIC50: −log10 of the molar value. “And” between values parts separate entries of the source, which are not always exact repeats. Equal entries are not always repeated.

What was measured:
[1] = test system: RNA synthesis in L 1210 Cells; test: Inhibition of RNA synthesis in L 1210 Cells; assay type: cell-based, mouse; conditions: Mus musculus, L1210, read-out: Leukemia L-1210 Cells Inhibition of Synthesis ED50, RNA
[2] = test system: tumors (colon cancer, melanoma); conditions: cited from earlier work
mouse leukemia P388 = conditions: prior art, U.S. Pat. No. 4,301,277; cited from earlier work
heart = conditions: some patients; cited from earlier work
[3] = test system: Lymphocyte Leukemia P-388; test: Survival time of mice inoculated i.p. with Lymphocyte Leukemia P-388, treated days 5, 9 and 13 (Table A); assay type: in vivo, mouse
P-388 leukemia = test: Mouse antitumor efficacy vs P-388 leukemia (Table B); conditions: mouse, in vivo
[4] = test system: DNA synthesis in L 1210 Cells; test: Inhibition of DNA synthesis in L 1210 Cells; assay type: cell-based, mouse; conditions: Mus musculus, L1210, read-out: Leukemia L-1210 Cells Inhibition of Synthesis ED50, DNA

## COc1cccc2c1C(=O)c1c(O)c3c(c(O)c1C2=O)C[C@@](O)(C(=O)CO)C[C@@H]3O[C@H]1C[C@H](N)[C@H](O)[C@H](C)O1 [doxorubicin]
[1]
  pIC50: 6.24
[2]
  response of patients with some serious tumor types (colon cancer, melanoma): essentially no patients with some serious tumor types (colon cancer, melanoma) respond
Mouse leukemia P388
  T/C value against P388: 160%
heart
  heart damage in chronic treatment: irreversible heart damage that can be fatal if continued
[3]; at 50 mg/kg (thiomorpholino) or 8 mg/kg (doxorubicin)
  T/C vs mouse leukemia P388: 160%
[3]; dose for the T/C quoted
  dose required vs mouse leukemia P388: 8 mg/kg
[3]; mouse, in vivo
  Survival Time, % T/C: 160%
P-388 leukemia
  Mouse Antitumor Efficacy at Optimum Dose, % T/C: 185%
  Optimum Dose: 10 mg/kg
P-388 leukemia; ip
  Mouse Antitumor Efficacy at Optimum Dose, % T/C: 252% and 257% and > 285%
[4]
  pIC50: 5.82
